Patent US4618622A, “Sulfonates of hydroxycoumarins” (priority 1982, dated 1986)

These molecules were tested on reserpine-induced hypothermia (assay: Antidepressant action: inhibition of reserpine-induced hypothermia (reserpine test)). Details: Mus musculus, po, 2 h, read-out: Antidepressant action (mouse) ED50.
Assay type: in vivo, mouse (male, Swiss strain)
Experimental: The test substances are administered orally, 60 minutes before the reserpine.
`Cc1cc(=O)oc2cc(OS(=O)(=O)c3ccc(Cl)cc3)ccc12` [Example 40, 7-Hydroxy-4-methylcoumarin 4'-chlorobenzenesulfonate] showed an ED50 of 8.7 mg/kg.

Same assay, conditions: oral administration, 60 minutes before reserpine 2.15 mg/kg s.c.; mouse; temperature 2 hours after; read-out: Antidepressant action (mouse) ED50
For `Cc1c(C)c2ccc(OS(=O)(=O)c3ccc(Cl)cc3)cc2oc1=O` [Example 9, 7-Hydroxy-3,4-dimethylcoumarin 4'-chlorobenzenesulfonate], the ED50 was 6.1 mg/kg.
Molecule `Cc1cc(=O)oc2cc(OS(C)(=O)=O)ccc12` [Example 42, 7-Hydroxy-4-methylcoumarin methanesulfonate] has an ED50 of 19.6 mg/kg.
For `Cc1c(C)c2ccc(OS(=O)(=O)c3ccc4ccccc4c3)cc2oc1=O` [Example 4, 7-Hydroxy-3,4-dimethylcoumarin naphthalene-2'-sulfonate], the ED50 was 4 mg/kg.
For `Cc1c(C)c2ccc(OS(=O)(=O)c3ccc(C#N)cc3)cc2oc1=O` [Example 18, 7-Hydroxy-3,4-dimethylcoumarin 4'-cyanobenzenesulfonate], the ED50 was 3.6 mg/kg.
In the case of `Cc1c(C)c2ccc(OS(=O)(=O)CC(C)C)cc2oc1=O` [Example 52, 7-Hydroxy-3,4-dimethylcoumarin 2'-methylpropanesulfonate], the ED50 is reported as 0.3 mg/kg.
`Cc1c(C)c2ccc(OS(=O)(=O)c3cccc([N+](=O)[O-])c3)cc2oc1=O` [Example 57, 7-Hydroxy-3,4-dimethylcoumarin 3'-nitrobenzenesulfonate] showed an ED50 of 1.5 mg/kg.
Work on `CCCCCS(=O)(=O)Oc1ccc2c(C)c(C)c(=O)oc2c1` [Example 38, 7-Hydroxy-3,4-dimethylcoumarin pentanesulfonate] yielded an ED50 of 1.4 mg/kg.
Work on `Cc1c(C)c2ccc(OS(=O)(=O)c3ccc(Br)cc3)cc2oc1=O` [Example 11, 7-Hydroxy-3,4-dimethylcoumarin 4'-bromobenzenesulfonate] yielded an ED50 of 2.5 mg/kg.
Molecule `Cc1c(C)c2ccc(OS(=O)(=O)C(F)(F)F)cc2oc1=O` [Example 24, 7-Hydroxy-3,4-dimethylcoumarin trifluoromethanesulfonate] has an ED50 of 3.7 mg/kg.
`Cc1c(C)c2ccc(OS(=O)(=O)c3ccc(F)cc3)cc2oc1=O` [Example 14, 7-Hydroxy-3,4-dimethylcoumarin 4'-fluorobenzenesulfonate] showed an ED50 of 1.4 mg/kg.
`CCS(=O)(=O)Oc1ccc2c(C)c(C)c(=O)oc2c1` [Example 39, 7-Hydroxy-3,4-dimethylcoumarin ethanesulfonate] gave an ED50 of 1.7 mg/kg.
In the case of `CCCS(=O)(=O)Oc1ccc2c(C)c(C)c(=O)oc2c1` [Example 22, 7-Hydroxy-3,4-dimethylcoumarin propanesulfonate], the ED50 is reported as 1.4 mg/kg.
`Cc1c(C)c2ccc(OS(=O)(=O)C(C)C)cc2oc1=O` [Example 23, 7-Hydroxy-3,4-dimethylcoumarin isopropanesulfonate] showed an ED50 of 3.1 mg/kg.
`Cc1c(C)c2ccc(OS(C)(=O)=O)cc2oc1=O` [Example 2, 7-Hydroxy-3,4-dimethylcoumarin methanesulfonate] gave an ED50 of 5.9 mg/kg.
Work on `Cc1c(C)c2ccc(OS(=O)(=O)CCCCl)cc2oc1=O` [Example 55, 7-Hydroxy-3,4-dimethylcoumarin 3'-chloropropanesulfonate] yielded an ED50 of 1.3 mg/kg.
Molecule `CNS(=O)(=O)Oc1ccc2c(C)c(C)c(=O)oc2c1` [Example 43, 7-Hydroxy-3,4-dimethylcoumarin N-methylamidosulfonate] has an ED50 of 1.9 mg/kg.
Work on `Cc1cc2ccc(OS(=O)(=O)c3ccc(Cl)cc3)cc2oc1=O` [Example 30, 7-Hydroxy-3-methylcoumarin 4'-chlorobenzenesulfonate] yielded an ED50 of 9 mg/kg.
For `Cc1c(C)c2ccc(OS(=O)(=O)CCl)cc2oc1=O` [Example 56, 7-Hydroxy-3,4-dimethylcoumarin chloromethanesulfonate], the ED50 was 3.4 mg/kg.
`Cc1cc(=O)oc2cc(OS(=O)(=O)c3ccccc3)ccc12` [Example 41, 7-Hydroxy-4-methylcoumarin benzenesulfonate] showed an ED50 of 29.7 mg/kg.
Molecule `CCCCS(=O)(=O)Oc1ccc2c(C)c(C)c(=O)oc2c1` [Example 26, 7-Hydroxy-3,4-dimethylcoumarin butanesulfonate] has an ED50 of 1.8 mg/kg.

What follows are molecules tested against T1, Monoaminoxidase A (Rattus norvegicus, UniProt P21396) (assay: biochemical). Details: monoaminoxidase A, rat brain homogenate, 14C-tryptamine 0.4 μmol/liter, 37° C., 20 minutes; read-out: Monoaminoxidase inhibition IC50.
T1 sequence (P21396 1-526): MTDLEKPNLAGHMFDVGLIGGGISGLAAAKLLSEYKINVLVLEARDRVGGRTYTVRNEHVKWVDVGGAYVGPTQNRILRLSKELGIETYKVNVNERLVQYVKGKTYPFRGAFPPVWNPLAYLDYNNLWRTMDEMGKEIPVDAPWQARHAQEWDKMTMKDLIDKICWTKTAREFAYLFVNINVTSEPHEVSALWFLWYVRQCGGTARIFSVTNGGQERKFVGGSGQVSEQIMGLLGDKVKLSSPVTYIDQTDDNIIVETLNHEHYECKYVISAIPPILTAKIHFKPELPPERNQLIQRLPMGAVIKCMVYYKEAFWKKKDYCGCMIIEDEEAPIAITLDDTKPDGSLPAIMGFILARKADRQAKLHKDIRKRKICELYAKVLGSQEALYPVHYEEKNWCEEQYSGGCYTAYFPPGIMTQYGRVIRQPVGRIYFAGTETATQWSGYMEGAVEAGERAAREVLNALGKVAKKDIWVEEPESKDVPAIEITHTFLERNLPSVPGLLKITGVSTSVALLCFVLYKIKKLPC
Experimental: Monoaminoxidase A is determined in dilute rat brain homogenate to which
1. various concentrations of the test substances and
2. ^14 C-tryptamine in a concentration of 0.4 μmol/liter are added. This mixture is incubated at 37° C. for 20 minutes, after which the reaction is terminated by means of aqueous 0.1N HCl, and the products are extracted with toluene scintillator (PPO+POPOP in toluene) and then determined. The blank value is determined in similar mixtures for an incubation time of t=0 minutes.
The mean inhibitory concentration (IC50) is calculated from the inhibitory values determined, in comparison with the control, at the various inhibitor concentrations, by means of a linear regression after logit-log transformation.
`Cc1c(C)c2ccc(OS(=O)(=O)Cc3ccccc3)cc2oc1=O` [Example 25, 7-Hydroxy-3,4-dimethylcoumarin phenylmethanesulfonate] gave an IC50 of 77 nM.
`Cc1c(C)c2ccc(OS(=O)(=O)c3cc(Cl)ccc3Cl)cc2oc1=O` [Example 13, 7-Hydroxy-3,4-dimethylcoumarin 2',5'-dichlorobenzenesulfonate] was tested, and the IC50 was 27 nM.
With `Cc1cc(=O)oc2cc(OS(C)(=O)=O)ccc12` [Example 42, 7-Hydroxy-4-methylcoumarin methanesulfonate] the IC50 was 130 nM.
With `O=c1oc2cc(OS(=O)(=O)c3ccc(Br)cc3)ccc2c2c1CCCC2` [Example 28, 7-Hydroxy-3,4-tetramethylenecoumarin 4'-bromobenzenesulfonate] the IC50 was 290 nM.
In the case of `CCCc1c(C)c2ccc(OS(=O)(=O)c3ccc(Cl)cc3)cc2oc1=O` [Example 37, 7-Hydroxy-4-methyl-3-propylcoumarin 4'-chlorobenzenesulfonate], the IC50 is reported as 67 nM.
In the case of `Cc1c(C)c2ccc(OS(=O)(=O)CC(C)C)cc2oc1=O` [Example 52, 7-Hydroxy-3,4-dimethylcoumarin 2'-methylpropanesulfonate], the IC50 is reported as 5.7 nM.
For `Cc1cc2ccc(OS(=O)(=O)c3ccccc3)cc2oc1=O` [Example 20, 7-Hydroxy-3-methylcoumarin benzenesulfonate], the IC50 was 67 nM.
Work on `Cc1c(C)c2ccc(OS(=O)(=O)c3cccc4ccccc34)cc2oc1=O` [Example 3, 7-Hydroxy-3,4-dimethylcoumarin naphthalene-1'-sulfonate] yielded an IC50 of 76 nM.
For `Cc1c(C)c2ccc(OS(=O)(=O)c3ccc(OC(F)(F)C(F)F)cc3)cc2oc1=O` [Example 8, 7-Hydroxy-3,4-dimethylcoumarin 4'-(α,α,β,β-tetrafluoroethoxy)-benzenesulfonate], the IC50 was 160 nM.
Molecule `Cc1c(Cl)c(=O)oc2cc(OS(=O)(=O)C(C)C)ccc12` [Example 60, 7-Hydroxy-3-chloro-4-methylcoumarin isopropanesulfonate] has an IC50 of 14 nM.
`CCCCCCCCS(=O)(=O)Oc1ccc2c(C)c(C)c(=O)oc2c1` [Example 27, 7-Hydroxy-3,4-dimethylcoumarin octanesulfonate] was tested, and the IC50 was 34 nM.
Molecule `Cc1c(C)c2ccc(OS(=O)(=O)c3ccccc3[N+](=O)[O-])cc2oc1=O` [Example 6, 7-Hydroxy-3,4-dimethylcoumarin 2'-nitrobenzenesulfonate] has an IC50 of 110 nM.
With `Cc1cc(=O)oc2cc(OS(=O)(=O)c3ccc(Cl)cc3)ccc12` [Example 40, 7-Hydroxy-4-methylcoumarin 4'-chlorobenzenesulfonate] the IC50 was 6.5 nM.
`CCc1cc(=O)oc2cc(OS(=O)(=O)c3ccc(Cl)cc3)ccc12` [Example 31, 4-Ethyl-7-hydroxycoumarin 4'-chlorobenzenesulfonate] showed an IC50 of 30 nM.
`Cc1c(C)c2ccc(OS(=O)(=O)C(F)(F)F)cc2oc1=O` [Example 24, 7-Hydroxy-3,4-dimethylcoumarin trifluoromethanesulfonate] was tested, and the IC50 was 75 nM.
`CCc1c(C)c2ccc(OS(=O)(=O)c3ccc(Cl)cc3)cc2oc1=O` [Example 34, 3-Ethyl-7-hydroxy-4-methylcoumarin 4'-chlorobenzenesulfonate] showed an IC50 of 23 nM.
In the case of `COC(=O)Cc1c(C)c2ccc(OS(=O)(=O)c3ccc(Br)cc3)cc2oc1=O` [Example 48, 7-Hydroxy-3-carbomethoxymethyl-4-methylcoumarin 4'-bromobenzenesulfonate], the IC50 is reported as 22 nM.
`CCCS(=O)(=O)Oc1ccc2c(C)c(C)c(=O)oc2c1` [Example 22, 7-Hydroxy-3,4-dimethylcoumarin propanesulfonate] showed an IC50 of 9.6 nM.
With `Cc1cc2ccc(OS(=O)(=O)c3ccc(Br)cc3)cc2oc1=O` [Example 19, 7-Hydroxy-3-methylcoumarin 4'-bromobenzenesulfonate] the IC50 was 9.8 nM.
For `O=c1oc2cc(OS(=O)(=O)c3ccc(Cl)cc3)ccc2c2c1CCCC2` [Example 29, 7-Hydroxy-3,4-tetramethylenecoumarin 4'-chlorobenzenesulfonate], the IC50 was 110 nM.
Work on `Cc1c(C)c2ccc(OS(=O)(=O)C(C)C)cc2oc1=O` [Example 23, 7-Hydroxy-3,4-dimethylcoumarin isopropanesulfonate] yielded an IC50 of 3.7 nM.
`Cc1cc(C)c(S(=O)(=O)Oc2ccc3c(C)c(C)c(=O)oc3c2)c(C)c1` [Example 12, 7-Hydroxy-3,4-dimethylcoumarin 2',4',6'-trimethylbenzenesulfonate] was tested, and the IC50 was 51 nM.
Molecule `CC(=O)Nc1ccc(S(=O)(=O)Oc2ccc3c(C)c(C)c(=O)oc3c2)cc1` [Example 15, 7-Hydroxy-3,4-dimethylcoumarin 4'-acetylaminobenzenesulfonate] has an IC50 of 620 nM.
With `CCOC(=O)c1cc2ccc(OS(=O)(=O)c3ccc(Cl)cc3)cc2oc1=O` [Example 50, 7-Hydroxy-3-carboethoxycoumarin 4'-chlorobenzenesulfonate] the IC50 was 540 nM.
`O=c1oc2cc(OS(=O)(=O)c3ccccc3)ccc2c2c1CCCC2` [Example 21, 7-Hydroxy-3,4-tetramethylenecoumarin benzenesulfonate] gave an IC50 of 550 nM.
Work on `CC(C)S(=O)(=O)Oc1ccc2ccc(=O)oc2c1` [Example 45, 7-Hydroxycoumarin isopropanesulfonate] yielded an IC50 of 160 nM.
`Cc1cc2ccc(OS(=O)(=O)c3ccc(Cl)cc3)cc2oc1=O` [Example 30, 7-Hydroxy-3-methylcoumarin 4'-chlorobenzenesulfonate] showed an IC50 of 6.3 nM.
Molecule `CCc1cc(=O)oc2cc(OS(=O)(=O)c3ccccc3)ccc12` [Example 32, 4-Ethyl-7-hydroxycoumarin benzenesulfonate] has an IC50 of 120 nM.
In the case of `CCOC(=O)c1cc2ccc(OS(=O)(=O)c3ccc([N+](=O)[O-])cc3)cc2oc1=O` [Example 51, 7-Hydroxy-3-carboethoxycoumarin 4'-nitrobenzenesulfonate], the IC50 is reported as 540 nM.
Work on `CCCCS(=O)(=O)Oc1ccc2c(C)c(C)c(=O)oc2c1` [Example 26, 7-Hydroxy-3,4-dimethylcoumarin butanesulfonate] yielded an IC50 of 7.3 nM.
